Measurements from US20260068885A1, “HERBICIDAL COMPOSITIONS” (BAYER AKTIENGESELLSCHAFT, priority 2022, published 2026).

Legend:
Assay in all cases: Post-emergence herbicidal action against harmful plants (greenhouse)
Format in all cases: in vivo
[1] = test system: Abutilon theophrasti (ABUTH)
Cyperus iria (CYPIR) = test system: Cyperus iria (CYPIR)
[2] = test system: Erigeron bonariensis (ERIBO)
Setaria viridis (SETVI) = test system: Setaria viridis (SETVI)
Solanum nigrum (SOLNI) = test system: Solanum nigrum (SOLNI)
[3] = test system: Brachiaria platyphylla (BRAPP)
In short: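 Weed and crop seeds were sown in sandy loam soil in wood-fibre pots, covered with soil, and grown in a greenhouse under good conditions. At the one-leaf stage, 2 to 3 weeks after sowing, plants were sprayed on green parts with WP or EC formulations as aqueous suspension or emulsion at 600 to 800 l/ha water plus 0.2% wetting agent. Herbicidal action was visually scored in percent versus untreated controls.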

Emex australis (EMEAU) = test system: Emex australis (EMEAU)
In short: (§1)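 Plants grown from seed in sandy loam in the greenhouse were sprayed at the one-leaf stage, 2 to 3 weeks after sowing, with WP or EC formulations as aqueous suspension/emulsion at 600 to 800 l/ha water plus 0.2% wetting agent. Damage was rated visually after about 3 weeks versus untreated controls (0% = like control, 100% = dead).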

[4] = test system: Euphorbia heterophylla (EPHHL); settings: for Herbicidal efficacy: EPHHL 21 DAT
In short: as §1

[5] = test system: Sorghum halepense (SORHA)
In short: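 Monocot and dicot weed and crop seeds were sown in sandy loam soil in wood-fibre pots, covered with soil, and grown in a greenhouse under good conditions. At the one-leaf stage, 2 to 3 weeks after sowing, the green plant parts were sprayed with compounds formulated as WP or EC in aqueous suspension or emulsion at 600 to 800 l/ha water plus 0.2% wetting agent. Herbicidal action (%) was scored visually against untreated controls, where 100% means the plants died and 0% means they look like controls.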

[6] = test system: Xanthium strumarium (XANST)
[7] = test system: Pharbitis purpurea (PHBPU)
[8] = test system: Polygonum convolvulus (POLCO)
[9] = test system: Xanthium strumarium (XANST); remark: listed apart in the source
[10] = application rate 2 g a.i./ha, 21 DAT

SMILES: Cc1nnc(NC(=O)c2ccc(C(F)(F)F)c([S@+](C)[O-])c2Cl)o1 [I-5]
- Herbicidal efficacy ([1]; ABUTH 10 DAT, 0.5 g a.i./ha): 20%
- Herbicidal efficacy ([1]; ABUTH 10 DAT, 2 g a.i./ha): 60%
- Herbicidal efficacy ([1]; ABUTH 21 DAT, 0.5 g a.i./ha): 10%
- Herbicidal efficacy ([1]; ABUTH 21 DAT, 2 g a.i./ha): 30%
- Herbicidal efficacy (Cyperus iria (CYPIR); CYPIR 10 DAT, 0.5 g a.i./ha): 50%
- Herbicidal efficacy (Cyperus iria (CYPIR); CYPIR 10 DAT, 2 g a.i./ha): 80%
- Herbicidal efficacy (Cyperus iria (CYPIR); CYPIR 21 DAT, 0.5 g a.i./ha): 40%
- Herbicidal efficacy (Cyperus iria (CYPIR); CYPIR 21 DAT, 2 g a.i./ha): 60%
- Herbicidal efficacy ([2]; ERIBO 10 DAT, 0.5 g a.i./ha): 0%
- Herbicidal efficacy ([2]; ERIBO 10 DAT, 2 g a.i./ha): 10%
- Herbicidal efficacy ([2]; ERIBO 21 DAT, 0.5 g a.i./ha): 0%
- Herbicidal efficacy ([2]; ERIBO 21 DAT, 2 g a.i./ha): 0%
- Herbicidal efficacy [%] against ERIBO 21 DAT [2, 10]: 40%
- Herbicidal efficacy (Setaria viridis (SETVI); SETVI 10 DAT, 0.5 g a.i./ha): 20%
- Herbicidal efficacy (Setaria viridis (SETVI); SETVI 10 DAT, 2 g a.i./ha): 40%
- Herbicidal efficacy (Setaria viridis (SETVI); SETVI 21 DAT, 0.5 g a.i./ha): 10%
- Herbicidal efficacy (Setaria viridis (SETVI); SETVI 21 DAT, 2 g a.i./ha): 20%
- Herbicidal efficacy (Solanum nigrum (SOLNI); SOLNI 10 DAT, 0.5 g a.i./ha): 20%
- Herbicidal efficacy (Solanum nigrum (SOLNI); SOLNI 10 DAT, 2 g a.i./ha): 60%
- Herbicidal efficacy (Solanum nigrum (SOLNI); SOLNI 21 DAT, 0.5 g a.i./ha): 0%
- Herbicidal efficacy (Solanum nigrum (SOLNI); SOLNI 21 DAT, 2 g a.i./ha): 20%
- Herbicidal efficacy [%] against SOLNI 10 DAT (Solanum nigrum (SOLNI); application rate 0.5 g a.i./ha): 20%
- Herbicidal efficacy [%] against SOLNI 21 DAT (Solanum nigrum (SOLNI); application rate 0.5 g a.i./ha): 0%
- Herbicidal efficacy [%] against SOLNI 10 DAT (Solanum nigrum (SOLNI); application rate 2 g a.i./ha): 60%
- Herbicidal efficacy [%] against SOLNI 21 DAT (Solanum nigrum (SOLNI); application rate 2 g a.i./ha): 20%
- Herbicidal efficacy ([3]; BRAPP 10 DAT, 0.5 g a.i./ha): 0%
- Herbicidal efficacy ([3]; BRAPP 10 DAT, 2 g a.i./ha): 30%
- Herbicidal efficacy ([3]; BRAPP 21 DAT, 0.5 g a.i./ha): 0%
- Herbicidal efficacy ([3]; BRAPP 21 DAT, 2 g a.i./ha): 0%
- Herbicidal efficacy (Emex australis (EMEAU); EMEAU 10 DAT, 0.5 g a.i./ha): 20%
- Herbicidal efficacy (Emex australis (EMEAU); EMEAU 10 DAT, 2 g a.i./ha): 20%
- Herbicidal efficacy (Emex australis (EMEAU); EMEAU 21 DAT, 0.5 g a.i./ha): 0%
- Herbicidal efficacy (Emex australis (EMEAU); EMEAU 21 DAT, 2 g a.i./ha): 10%
- Herbicidal efficacy [%] against EMEAU 10 DAT (Emex australis (EMEAU); application rate 0.5 g a.i./ha, 10 DAT): 30%
- Herbicidal efficacy [%] against EMEAU 21 DAT (Emex australis (EMEAU); application rate 0.5 g a.i./ha): 20%
- Herbicidal efficacy [%] against EMEAU 21 DAT (Emex australis (EMEAU); application rate 2 g a.i./ha): 88%
- Herbicidal efficacy ([4]; 0.5 g a.i./ha): 0%
- Herbicidal efficacy ([4]; 2 g a.i./ha): 10%
- Herbicidal efficacy [%] against EPHHL 21 DAT ([4]; application rate 0.5 g a.i./ha): 30%
- Herbicidal efficacy [%] against EPHHL 21 DAT ([4]; application rate 2 g a.i./ha): 40%
- Herbicidal efficacy [%] against SORHA 10 DAT ([5]; application rate 0.5 g a.i./ha): 0%
- Herbicidal efficacy [%] against SORHA 21 DAT ([5]; application rate 0.5 g a.i./ha): 0%
- Herbicidal efficacy [%] against SORHA 10 DAT ([5]; application rate 2 g a.i./ha): 20%
- Herbicidal efficacy [%] against SORHA 10 DAT ([5]; application rate 2 g a.i./ha, table with flufenoximacil): 90%
- Herbicidal efficacy [%] against SORHA 21 DAT ([5]; application rate 2 g a.i./ha): 10%
- Herbicidal efficacy [%] against XANST 21 DAT ([6]; application rate 0.5 g a.i./ha): 10%
- Herbicidal efficacy [%] against XANST 21 DAT ([6]; application rate 2 g a.i./ha): 20%
- Herbicidal efficacy ([7]; PHBPU 10 DAT, 0.5 g a.i./ha): 0%
- Herbicidal efficacy ([7]; PHBPU 10 DAT, 2 g a.i./ha): 20%
- Herbicidal efficacy ([7]; PHBPU 21 DAT, 0.5 g a.i./ha): 0%
- Herbicidal efficacy ([7]; PHBPU 21 DAT, 2 g a.i./ha): 0%
- Herbicidal efficacy [%] against PHBPU 21 DAT ([7]; application rate 0.5 g a.i./ha, 21 DAT): 40%
- Herbicidal efficacy ([8]; POLCO 10 DAT, 0.5 g a.i./ha): 0%
- Herbicidal efficacy ([8]; POLCO 10 DAT, 2 g a.i./ha): 0%
- Herbicidal efficacy ([8]; POLCO 21 DAT, 0.5 g a.i./ha): 0%
- Herbicidal efficacy ([8]; POLCO 21 DAT, 2 g a.i./ha): 0%
- Herbicidal efficacy [%] against POLCO 21 DAT [8, 10]: 30%
- Herbicidal efficacy [%] against XANST 10 DAT ([9]; application rate 0.5 g a.i./ha): 20%
- Herbicidal efficacy [%] against XANST 21 DAT ([9]; application rate 0.5 g a.i./ha, 21 DAT, table with flufenoximacil): 30%
- Herbicidal efficacy [%] against XANST 10 DAT ([9]; application rate 2 g a.i./ha): 30%
